Laboratory results reported in the NIST ThermoML archive (doi:10.1016/j.jct.2017.06.002).
Numbers after ± are expanded uncertainties.

How the values were obtained:
[1] = 100 kPa, Liquid; for viscosity: Concentric cylinders viscometry
[2] = xn = mol fraction of the nth substance listed; conditions: 100 kPa, Liquid, x1 = 1; for viscosity: Concentric cylinders viscometry; for mass density: Vibrating tube method
[3] = 288.15 K, Vibrating tube method
[4] = 293.15 K, Vibrating tube method
[5] = 298.15 K, Buoyancy - hydrostatic balance
[6] = 298.15 K, Vibrating tube method
[7] = 303.15 K, Vibrating tube method
[8] = 308.15 K, Vibrating tube method
[9] = 313.15 K, Vibrating tube method

Work on `COCOCOCOCOC` [2,4,6,8,10-pentaoxaundecane] yielded a viscosity ([1]; 288.15 K) of 2.207 ± 0.051 mPa·s, a mass density [1, 3] of 1078.8 ± 2 kg/m3 and a viscosity ([1]; 293.15 K) of 2.015 ± 0.051 mPa·s. The mass density [1, 4] was 1073.3 ± 2 kg/m3, the mass density [1, 5] was 1067.8 ± 2 kg/m3 and the viscosity ([1]; 298.15 K) was 1.848 ± 0.051 mPa·s. The mass density [1, 6] was 1068.2 ± 2 kg/m3, the viscosity ([1]; 303.15 K) was 1.703 ± 0.051 mPa·s and the mass density [1, 7] was 1063.4 ± 2 kg/m3. For the same compound, the viscosity ([1]; 308.15 K) was 1.576 ± 0.051 mPa·s, the mass density [1, 8] was 1059.1 ± 2 kg/m3 and the viscosity ([1]; 313.15 K) was 1.464 ± 0.051 mPa·s. The mass density [1, 9] was 1055.2 ± 2 kg/m3.
With `COCOCOCOC` [2,4,6,8-tetraoxanonane] + COCOCOCOCOC the viscosity ([2]; 288.15 K) was 1.259 ± 0.051 mPa·s, the mass density ([2]; 288.15 K) was 1037.5 ± 2 kg/m3 and the viscosity ([2]; 293.15 K) was 1.166 ± 0.051 mPa·s. For the same compound, the mass density ([2]; 293.15 K) was 1030.2 ± 2 kg/m3, the viscosity ([2]; 298.15 K) was 1.084 ± 0.051 mPa·s and the mass density ([2]; 298.15 K) was 1023.4 ± 2 kg/m3. The viscosity ([2]; 303.15 K) was 1.028 ± 0.051 mPa·s, the mass density ([2]; 303.15 K) was 1016.6 ± 2 kg/m3 and the viscosity ([2]; 308.15 K) was 0.9921 ± 0.051 mPa·s. For the same compound, the mass density ([2]; 308.15 K) was 1011 ± 2 kg/m3, the viscosity ([2]; 313.15 K) was 0.9521 ± 0.05 mPa·s and the mass density ([2]; 313.15 K) was 1005 ± 2 kg/m3.
Compound `COCOCOC` [2,4,6-trioxaheptane] + COCOCOCOC has a viscosity ([2]; 288.15 K) of 0.9255 ± 0.05 mPa·s, a mass density ([2]; 288.15 K) of 999.4 ± 2 kg/m3 and a viscosity ([2]; 293.15 K) of 0.9152 ± 0.05 mPa·s. The mass density ([2]; 293.15 K) was 995.3 ± 2 kg/m3, the viscosity ([2]; 298.15 K) was 0.9028 ± 0.05 mPa·s and the mass density ([2]; 298.15 K) was 989.9 ± 2 kg/m3. It also gave a viscosity ([2]; 303.15 K) of 0.8885 ± 0.05 mPa·s, a mass density ([2]; 303.15 K) of 984.3 ± 2 kg/m3 and a viscosity ([2]; 308.15 K) of 0.8726 ± 0.05 mPa·s. For the same compound, the mass density ([2]; 308.15 K) was 978.8 ± 2 kg/m3, the viscosity ([2]; 313.15 K) was 0.8554 ± 0.05 mPa·s and the mass density ([2]; 313.15 K) was 974.2 ± 2 kg/m3.
Work on `COCOCOC` [2,4,6-trioxaheptane] + COCOCOCOCOC yielded a viscosity ([2]; 288.15 K) of 0.9255 ± 0.05 mPa·s, a mass density ([2]; 288.15 K) of 999.4 ± 2 kg/m3 and a viscosity ([2]; 293.15 K) of 0.9152 ± 0.05 mPa·s. The mass density ([2]; 293.15 K) was 995.3 ± 2 kg/m3, the viscosity ([2]; 298.15 K) was 0.9028 ± 0.05 mPa·s and the mass density ([2]; 298.15 K) was 989.9 ± 2 kg/m3. For the same compound, the viscosity ([2]; 303.15 K) was 0.8885 ± 0.05 mPa·s, the mass density ([2]; 303.15 K) was 984.3 ± 2 kg/m3 and the viscosity ([2]; 308.15 K) was 0.8726 ± 0.05 mPa·s. It also gave a mass density ([2]; 308.15 K) of 978.8 ± 2 kg/m3, a viscosity ([2]; 313.15 K) of 0.8554 ± 0.05 mPa·s and a mass density ([2]; 313.15 K) of 974.2 ± 2 kg/m3.
Work on `COCOCOCOC` [2,4,6,8-tetraoxanonane] yielded a viscosity ([1]; 288.15 K) of 1.259 ± 0.051 mPa·s, a mass density [1, 3] of 1037.5 ± 2 kg/m3 and a viscosity ([1]; 293.15 K) of 1.166 ± 0.051 mPa·s. The mass density [1, 4] was 1030.2 ± 2 kg/m3, the mass density [1, 5] was 1023.1 ± 2 kg/m3 and the viscosity ([1]; 298.15 K) was 1.084 ± 0.051 mPa·s. For the same compound, the mass density [1, 6] was 1023.4 ± 2 kg/m3, the viscosity ([1]; 303.15 K) was 1.028 ± 0.051 mPa·s and the mass density [1, 7] was 1016.6 ± 2 kg/m3. It also gave a viscosity ([1]; 308.15 K) of 0.9921 ± 0.051 mPa·s, a mass density [1, 8] of 1011 ± 2 kg/m3 and a viscosity ([1]; 313.15 K) of 0.9521 ± 0.05 mPa·s. For the same compound, the mass density [1, 9] was 1005 ± 2 kg/m3.
In the case of `COCOCOC` [2,4,6-trioxaheptane], the viscosity ([1]; 288.15 K) is reported as 0.9255 ± 0.05 mPa·s, the mass density [1, 3] is reported as 999.4 ± 2 kg/m3 and the viscosity ([1]; 293.15 K) is reported as 0.9152 ± 0.05 mPa·s. For the same compound, the mass density [1, 4] was 995.3 ± 2 kg/m3, the mass density [1, 5] was 989.2 ± 2 kg/m3 and the viscosity ([1]; 298.15 K) was 0.9028 ± 0.05 mPa·s. For the same compound, the mass density [1, 6] was 989.9 ± 2 kg/m3, the viscosity ([1]; 303.15 K) was 0.8885 ± 0.05 mPa·s and the mass density [1, 7] was 984.3 ± 2 kg/m3. The viscosity ([1]; 308.15 K) was 0.8726 ± 0.05 mPa·s, the mass density [1, 8] was 978.8 ± 2 kg/m3 and the viscosity ([1]; 313.15 K) was 0.8554 ± 0.05 mPa·s. For the same compound, the mass density [1, 9] was 974.2 ± 2 kg/m3.
